Results published in the supplement of paper PMC5908809.

What was measured:
Test in all cases: relative IC50 (inflection point of fitted viability curve, relative to fitted max inhibition); higher = less sensitive
Conditions in all cases: 72 h
[1] = system: KHYG-1 (IL-2 2.5 ng/mL)
Experimental: (§1)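 Drug sensitivity and resistance testing: 5 concentrations over a 10,000-fold range, 72 h at 37 °C, viability by CellTiter-Glo normalised to DMSO and benzethonium chloride controls. IC50 is the inflection point of a logistic fit (min fixed at 0, max fitted), so it is relative to the fitted maximal inhibition. Kept only where fitted max inhibition is at least 50%.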

[2] = system: NK-92 (IL-2 2.5 ng/mL)
Experimental: as §1

[3] = system: SNK-6 (IL-2 2.5 ng/mL)
Experimental: as §1

[4] = system: normal primary NK cells, pool 3 (3 donors) (IL-2 2.5 ng/mL)
Experimental: as §1

[5] = system: YT (IL-2 2.5 ng/mL)
Experimental: as §1

[6] = system: NK-YS (IL-2 2.5 ng/mL)
Experimental: as §1

[7] = system: KAI3 (IL-2 2.5 ng/mL)
Experimental: as §1

[8] = system: DERL-7 (IL-2 2.5 ng/mL)
Experimental: as §1

[9] = system: normal primary NK cells, pool 1 (3 donors), resting (IL-2 0 ng/mL)
Experimental: as §1

[10] = system: NKL (IL-2 2.5 ng/mL)
Experimental: as §1

[11] = system: normal primary NK cells, pool 1 (3 donors) (IL-2 2.5 ng/mL)
Experimental: as §1

[12] = system: IMC-1 (IL-2 20 ng/mL)
Experimental: as §1

[13] = system: normal primary NK cells, pool 2 (3 donors) (IL-2 2.5 ng/mL)
Experimental: as §1

Compound: CN1CC[C@H](c2c(O)cc(O)c3c(=O)cc(-c4ccccc4Cl)oc23)[C@H](O)C1 [Alvocidib]
- relative IC50 [1]: 136 nM
- relative IC50 [2]: 117 nM
- relative IC50 [3]: 8.41 nM
- relative IC50 [4]: 164 nM
- relative IC50 [5]: 133 nM
- relative IC50 [6]: 142 nM
- relative IC50 [7]: 55.3 nM
- relative IC50 [8]: 174 nM
- relative IC50 [9]: 370 nM
- relative IC50 [10]: 126 nM
- relative IC50 [11]: 182 nM
- relative IC50 [12]: 410 nM
- relative IC50 [13]: 150 nM

Compound: CCOC(=O)CCNc1cc(N2CCc3ccccc3CC2)nc(-c2ccccn2)n1 [GSK-J4]
- relative IC50 [1]: 1740 nM
- relative IC50 [2]: 837 nM
- relative IC50 [3]: 3020 nM
- relative IC50 [4]: 2110 nM
- relative IC50 [5]: 2670 nM
- relative IC50 [6]: 3320 nM
- relative IC50 [7]: 3340 nM
- relative IC50 [8]: 2480 nM
- relative IC50 [9]: 1280 nM
- relative IC50 [10]: 3370 nM
- relative IC50 [11]: 2100 nM
- relative IC50 [12]: 1230 nM
- relative IC50 [13]: 3280 nM

Compound: CC(C)C[C@@H](C(=O)N[C@H](C(=O)OC1CCCC1)c1ccccc1)[C@H](O)C(=O)NO [Tosedostat]
- relative IC50 [1]: 606 nM
- relative IC50 [5]: 1520 nM
- relative IC50 [8]: 23.3 nM
- relative IC50 [9]: 274 nM
- relative IC50 [10]: 1960 nM
- relative IC50 [11]: 942 nM
- relative IC50 [13]: 903 nM

Compound: COCC1(CO)C(=O)C2CCN1CC2 (stereo unspecified) [APR-246]
- relative IC50 [4]: 442 nM
- relative IC50 [9]: 277 nM
- relative IC50 [11]: 566 nM
- relative IC50 [13]: 393 nM

Compound: CN(C)C(=O)c1cc2cnc(Nc3ccc(N4CCNCC4)cn3)nc2n1C1CCCC1 [NVP-LEE011]
- relative IC50 [1]: 1060 nM
- relative IC50 [9]: 630 nM
- relative IC50 [11]: 2200 nM

Compound: CNC(=O)c1ccc(N2C(=S)N(c3ccc(C#N)c(C(F)(F)F)c3)C(=O)C2(C)C)cc1F [Enzalutamide]
- relative IC50 [4]: > 10000 nM
- relative IC50 [7]: > 10000 nM
- relative IC50 [8]: > 10000 nM

Compound: Nc1ncnc2c1nc(Cl)n2[C@@H]1O[C@H](CO)[C@@H](O)[C@H]1O [8-chloro-adenosine]
- relative IC50 [1]: 2820 nM
- relative IC50 [2]: 2610 nM
- relative IC50 [3]: 330 nM
- relative IC50 [4]: 7030 nM
- relative IC50 [5]: 1870 nM
- relative IC50 [6]: 1440 nM
- relative IC50 [7]: 579 nM
- relative IC50 [8]: 641 nM
- relative IC50 [9]: 5340 nM
- relative IC50 [10]: 4720 nM
- relative IC50 [11]: 5980 nM
- relative IC50 [12]: 19300 nM
- relative IC50 [13]: 6010 nM

Compound: CCS(=O)(=O)c1cccc(-c2cc(C(=O)NC3CCN(C)CC3)c(C)c3[nH]c4ncc(C)cc4c23)c1 [TAK-901]
- relative IC50 [1]: 208 nM
- relative IC50 [3]: 135 nM
- relative IC50 [6]: 30.8 nM
- relative IC50 [7]: 116 nM
- relative IC50 [8]: 50.2 nM
- relative IC50 [10]: 105 nM
- relative IC50 [11]: 303 nM
- relative IC50 [12]: 116 nM

Compound: CC(=O)NCC(=O)N1[C@@H]2CC[C@H]1c1ccc(Nc3ncc(C(F)(F)F)c(NC4CCC4)n3)cc12
- relative IC50 [1]: 40.8 nM
- relative IC50 [2]: 117 nM
- relative IC50 [3]: 20 nM
- relative IC50 [4]: 1310 nM
- relative IC50 [5]: 439 nM
- relative IC50 [6]: 111 nM
- relative IC50 [7]: 95 nM
- relative IC50 [8]: 54.3 nM
- relative IC50 [9]: 4400 nM
- relative IC50 [10]: 101 nM
- relative IC50 [11]: 975 nM
- relative IC50 [12]: 91.9 nM
- relative IC50 [13]: 766 nM

Compound: O=c1cc(N2CCOCC2)oc2c(-c3ccccc3)cccc12
- relative IC50 [1]: 13600 nM
- relative IC50 [2]: 12300 nM
- relative IC50 [3]: 4830 nM
- relative IC50 [4]: 16800 nM
- relative IC50 [5]: 8330 nM
- relative IC50 [6]: 9060 nM
- relative IC50 [7]: 11500 nM
- relative IC50 [8]: 5890 nM
- relative IC50 [9]: 6670 nM
- relative IC50 [10]: 5080 nM
- relative IC50 [11]: 13400 nM
- relative IC50 [12]: 35200 nM
- relative IC50 [13]: 11700 nM

Compound: Cc1ccc2nc(CN(CCN(Cc3nc4ccc(C)cc4[nH]3)Cc3nc4ccc(C)cc4[nH]3)Cc3nc4ccc(C)cc4[nH]3)[nH]c2c1
- relative IC50 [1]: 6250 nM
- relative IC50 [2]: 3900 nM
- relative IC50 [3]: 18200 nM
- relative IC50 [5]: 7070 nM
- relative IC50 [6]: 8980 nM
- relative IC50 [7]: 3470 nM
- relative IC50 [8]: 8270 nM
- relative IC50 [9]: 8020 nM
- relative IC50 [10]: 2160 nM
- relative IC50 [11]: 7650 nM
- relative IC50 [12]: 8640 nM

Compound: COc1cc(Nc2ncc(F)c(Nc3ccc4c(n3)NC(=O)C(C)(C)O4)n2)cc(OC)c1OC [Tamatinib]
- relative IC50 [1]: 1340 nM
- relative IC50 [2]: 2180 nM
- relative IC50 [3]: 3590 nM
- relative IC50 [4]: 2800 nM
- relative IC50 [5]: 2580 nM
- relative IC50 [6]: 1650 nM
- relative IC50 [7]: 536 nM
- relative IC50 [9]: > 10000 nM
- relative IC50 [10]: 992 nM
- relative IC50 [12]: 4100 nM
